This is an account of results in article PMC8170916, “Sublingual AKBA Exerts Antidepressant Effects in the Aβ-Treated Mouse Model” (Biomolecules, 2021).

A short description of series [1]: Plasmatic AKBA levels after sublingual or intranasal administration. Particulars: 5 mg/kg. Format: in vivo, mice. Here is the method: AKBA (Cayman Chemical Company) was dissolved in sunflower oil, this vehicle was chosen in order to maintain a better tasting and higher density of the final solution thus reducing reflux through the digestive tract. […] Ten µL of the solution (or vehicle alone) was sublingually administered to mice. For intranasal administration, requiring more hydrophilic solution, AKBA was dissolved in DMSO and saline (1:3, v/v), and given to mice at the same final dose of 5 mg/kg. […]
[…] The pellets were then removed, and the remaining supernatants were dried on sodium sulphate anhydrous, filtered with 0.20 µm PTFE syringe filters and used for chemical analysis. The quantification of 3-O-acetyl-11-keto-β-boswellic acid (AKBA) was performed by using GC-MS/IT equipment composed of a gas chromatograph GC-7890B (Agilent Technologies, Santa Clara, CA, USA) coupled with an ion trap mass spectrometer IT-240 (Agilent Technologies).
The gas chromatograph was equipped with a VF-5 ms (Agilent J&W GC Columns) capillary column, 30 m × 0.25 mm i.d. × 0.25 µm. […]
The MS electron multiplier voltage was set at 1450 V, and an ionization time of 65,000 µs was used, running in the electron impact (EI) mode. […] These characteristic fragments were selected as a mass target to develop the MS acquisition method operating in single ion scan mode (SIS) to improve the LOD and LOQ for AKBA quantification. […]

Series [2] in a line: Cerebral AKBA quantification by GC-MS/IT after sublingual or intranasal administration. Conditions: 5 mg/kg. Format: in vivo, mice. On the procedure:
AKBA (Cayman Chemical Company) was dissolved in sunflower oil, this vehicle was chosen in order to maintain a better tasting and higher density of the final solution thus reducing reflux through the digestive tract. […] Ten µL of the solution (or vehicle alone) was sublingually administered to mice. For intranasal administration, requiring more hydrophilic solution, AKBA was dissolved in DMSO and saline (1:3, v/v), and given to mice at the same final dose of 5 mg/kg. Cerebral AKBA was quantified in a separate subset of mice at 5, 15 and 30 min after its administration, either sublingually or intranasally.
After administration, whole brains were put in 1 mL of a solution of chloroform/methanol (1:1 v/v), sonicated and then homogenates were centrifuged at 4 °C for 20 min (10,000 rpm). The pellets were then removed, and the remaining supernatants were dried on sodium sulphate anhydrous, filtered with 0.20 µm PTFE syringe filters and used for chemical analysis. The quantification of 3-O-acetyl-11-keto-β-boswellic acid (AKBA) was performed by using GC-MS/IT equipment composed of a gas chromatograph GC-7890B (Agilent Technologies, Santa Clara, CA, USA) coupled with an ion trap mass spectrometer IT-240 (Agilent Technologies).
The gas chromatograph was equipped with a VF-5 ms (Agilent J&W GC Columns) capillary column, 30 m × 0.25 mm i.d. × 0.25 µm. The column oven was set at 50 °C for 1 min after injection; then the temperature was increased from 50 °C to 300 °C with a ramp of 5 °C/min and a hold time of 10 min. The purge process was performed at the end of each run, increasing the oven temperature from 300 °C to 325 °C at 10 °C/min and a hold time of 1.5 min. The total time for each run was approximately 65 min. The injection volume was 2 µL (splitless) with a continuous flow rate of 1 mL/min of ultra-high purity helium (BIP®) and an injector temperature of 250 °C.
The MS electron multiplier voltage was set at 1450 V, and an ionization time of 65,000 µs was used, running in the electron impact (EI) mode. The transfer line, ion trap and manifold temperatures were set at 270 °C, 180 °C and 70 °C, respectively. The mass spectrometer firstly operated in full scan mode (50–700 m/z) with the ionizing voltage at 70 eV. […] Peaks at m/z 408 and m/z 393 were identified as M-AcOH-CO2 and M-AcOH-CO2-CH3. The peak at m/z 273 was identified as fragment A, resulting from retro-Diels–Alder fragmentation, while the peak at m/z 232 was identified as fragment B, generated from McLafferty fragmentation. These characteristic fragments were selected as a mass target to develop the MS acquisition method operating in single ion scan mode (SIS) to improve the LOD and LOQ for AKBA quantification. […]

In the next series the test system is Aβ-treated mice. Put plainly: Splash test in Aβ-treated mice. Format: in vivo. Particulars: mice 7 days after icv Aβ 4 µM.
Details of series [3]: method as in PMID 21553931. Conditions: cited from earlier work.
[4] abbreviates: sublingual vs intranasal, 5, 15 and 30 min after administration.
The mark [5] stands for this setting: sublingual AKBA 5 mg/kg 30 min before testing, Aβ vs SHAM, Aβ+AKBA vs Aβ.

Each structure is given as a SMILES string.

On to `CC(=O)O[C@@H]1CC[C@@]2(C)[C@@H](CC[C@]3(C)[C@@H]2C(=O)C=C2[C@@H]4[C@@H](C)[C@H](C)CC[C@]4(C)CC[C@]23C)[C@@]1(C)C(=O)O` [AKBA, 3-O-acetyl-11-keto-β-boswellic acid], for which, in series [1], the “Plasmatic AUCs, sublingual vs intranasal” value is “higher after sublingual administration”. In addition, the “Plasmatic AKBA levels” value in series [1] (setting [4]) is “significantly higher after sublingual administration compared to intranasal”. In addition, the “Cerebral AUCs, sublingual vs intranasal” value in series [2] (same dose by both routes) was “sublingual route of administration was characterized by higher bioavailability”. In addition, the “Crossing of the blood brain barrier” value in series [2] (sublingual or intranasal) was “rapidly crossed the blood brain barrier”. Moreover, the “Time of highest cerebral AKBA concentrations after administration” value in series [2] (sublingual or intranasal, sampled at 5, 15, 30 min) was 5 min. In series [2] (setting [4]), the “Cerebral AKBA levels (whole brain)” value is “significantly higher after sublingual administration compared to intranasal”. In the series with Aβ-treated mice (sublingual AKBA 5 mg/kg 5 min before testing), the “Depressive-like behavior induced by Aβ in the splash test, 5 min after AKBA” value is on record as “not reverted”. In the series on Aβ-treated mice (setting [5]), the “Latency to leak in the splash test” value is given as “such an outcome was reverted” and the “Time spent performing self-care in the splash test” value was “prevented such an effect”. For the same compound, the Oral bioavailability entry in series [3] is given as “low oral bioavailability”.
